pEC50, pIC50: −log10 of the molar value. Like-named read-outs stand apart in the source and are kept apart here.
Assays:
[1] = system: NCI-H358 cells (K-Ras G12C); test: Potency assay: pERK in NCI-H358 cells; format: cell-based, human; conditions: Homo sapiens, NCI-H358; H358 KRAS G12C; read-out: pERK EC50
In short: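 Inhibition of cellular pERK after a 4 h treatment, detected by AlphaLISA or In-Cell Western. IC50 from a four-parameter concentration-response fit.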

KRAS G12D = KRAS G12D (Homo sapiens (Human), UniProt P01116+P62937, G12D); test: Ras-Raf (BRAF RBD) disruption / FRET / MOA assay, KRAS G12D; format: biochemical; conditions: Ras-Raf disruption/FRET/MOA assay; class symbols; read-out: KRAS G12D FRET data IC50
In short: (§1)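 Compounds, top final concentration 30 μM in 10-point 3-fold series, incubated 3 hours at 25° C with nucleotide-loaded Ras, cyclophilin A and BRAF RBD.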

K-Ras G13C = K-Ras G13C (Homo sapiens (Human), UniProt P01116+P62937, G13C); test: Ras-Raf (BRAF RBD) disruption / FRET / MOA assay, KRAS G13C; format: biochemical; conditions: KRAS G13C; Ras-Raf disruption/FRET/MOA assay; read-out: IC50* KRAS G13C FRET data
In short: as §1

K-Ras G12C = K-Ras G12C (Homo sapiens (Human), UniProt P01116+P62937, G12C); test: Ras-Raf (BRAF RBD) disruption / FRET / MOA assay, KRAS G12C; format: biochemical; conditions: KRAS G12C; Ras-Raf disruption/FRET/MOA assay; read-out: IC50* KRAS G12C FRET data
In short: as §1

KRAS G12V = KRAS G12V (Homo sapiens (Human), UniProt P01116+P62937, G12V); test: Ras-Raf (BRAF RBD) disruption / FRET / MOA assay, KRAS G12V; format: biochemical; conditions: read-out: IC50* KRAS G12V FRET data
In short: as §1

KRAS WT = KRAS WT (Homo sapiens (Human), UniProt P01116+P62937); test: Ras-Raf (BRAF RBD) disruption / FRET / MOA assay, KRAS WT; format: biochemical; conditions: read-out: IC50* KRAS WT FRET data
In short: as §1

KRAS G13D = KRAS G13D (Homo sapiens (Human), UniProt P01116+P62937, G13D); test: Ras-Raf (BRAF RBD) disruption / FRET / MOA assay, KRAS G13D; format: biochemical; conditions: read-out: IC50* KRAS G13D FRET data
In short: as §1

NRAS G12C = NRAS G12C (Homo sapiens (Human), UniProt P01111+P62937, G12C); test: Ras-Raf (BRAF RBD) disruption / FRET / MOA assay, NRAS G12C; format: biochemical; conditions: read-out: IC50* NRAS G12C FRET data
In short: as §1

NCI-H358 (K-Ras G12C) = test: CellTiter-Glo cell viability assay, NCI-H358; format: cell-based, human; conditions: Homo sapiens, NCI-H358, 120 h, class symbols; for pIC50: NCI-H358, 5-day treatment, read-out: Additional H358 Cell Viability assay data (K-Ras G12C, IC50)
In short: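 Compounds were dispensed directly onto K-Ras mutant cells and incubated until day 5, then plates were equilibrated to room temperature for about 30 minutes before CellTiter-Glo luminescence. Signals were normalized as (sample/average DMSO)*100 and fitted by four-parameter logistic fit.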

KRAS G12S = KRAS G12S (Homo sapiens (Human), UniProt P01116+P62937, G12S); test: Ras-Raf (BRAF RBD) disruption / FRET / MOA assay, KRAS G12S; format: biochemical; conditions: Ras-Raf disruption/FRET/MOA assay; class symbols; read-out: KRAS G12S FRET data IC50
In short: as §1

Chain of KRAS G12V (P01116-2 other isoform, or with tags, fused parts or gaps G12V): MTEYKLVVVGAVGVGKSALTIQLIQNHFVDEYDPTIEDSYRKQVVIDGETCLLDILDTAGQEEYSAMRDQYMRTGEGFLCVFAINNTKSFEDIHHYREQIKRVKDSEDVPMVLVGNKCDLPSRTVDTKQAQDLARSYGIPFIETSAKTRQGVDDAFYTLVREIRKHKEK
Chain of KRAS G12V (P62937 whole entry): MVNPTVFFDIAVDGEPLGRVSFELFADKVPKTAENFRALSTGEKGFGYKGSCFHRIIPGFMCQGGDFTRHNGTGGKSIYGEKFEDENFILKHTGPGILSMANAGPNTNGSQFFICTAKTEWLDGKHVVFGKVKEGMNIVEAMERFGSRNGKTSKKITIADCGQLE
Chain of KRAS G12D (P01116-2 other isoform, or with tags, fused parts or gaps G12D): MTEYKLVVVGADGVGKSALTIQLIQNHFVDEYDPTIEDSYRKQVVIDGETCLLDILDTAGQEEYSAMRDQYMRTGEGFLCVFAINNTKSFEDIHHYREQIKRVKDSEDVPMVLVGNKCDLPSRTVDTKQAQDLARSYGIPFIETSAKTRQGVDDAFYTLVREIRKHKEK
Chain of KRAS G12D (P62937 whole entry): as the sequence (P62937 whole entry) above
Chain of KRAS G12S (P01116-2 other isoform, or with tags, fused parts or gaps G12S): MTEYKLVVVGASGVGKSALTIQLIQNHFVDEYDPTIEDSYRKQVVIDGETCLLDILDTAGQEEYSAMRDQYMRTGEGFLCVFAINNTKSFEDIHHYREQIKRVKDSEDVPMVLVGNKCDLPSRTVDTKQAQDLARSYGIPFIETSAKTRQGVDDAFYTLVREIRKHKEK
Chain of KRAS G12S (P62937 whole entry): as the sequence (P62937 whole entry) above
Chain of KRAS WT (P01116-2 other isoform, or with tags, fused parts or gaps): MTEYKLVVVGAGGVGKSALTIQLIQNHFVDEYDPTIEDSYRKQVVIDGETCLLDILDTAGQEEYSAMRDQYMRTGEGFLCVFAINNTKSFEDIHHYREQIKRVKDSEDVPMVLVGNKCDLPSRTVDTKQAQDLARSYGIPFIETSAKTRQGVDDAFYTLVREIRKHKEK
Chain of KRAS WT (P62937 whole entry): as the sequence (P62937 whole entry) above
Chain of NRAS G12C (P01111 whole entry G12C): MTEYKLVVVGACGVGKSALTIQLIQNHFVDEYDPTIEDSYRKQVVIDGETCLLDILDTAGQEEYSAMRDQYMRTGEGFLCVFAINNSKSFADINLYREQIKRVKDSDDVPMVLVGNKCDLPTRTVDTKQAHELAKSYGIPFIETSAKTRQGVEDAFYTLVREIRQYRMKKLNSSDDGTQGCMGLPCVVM
Chain of NRAS G12C (P62937 whole entry): as the sequence (P62937 whole entry) above
Chain of K-Ras G12C (P01116-2 other isoform, or with tags, fused parts or gaps G12C): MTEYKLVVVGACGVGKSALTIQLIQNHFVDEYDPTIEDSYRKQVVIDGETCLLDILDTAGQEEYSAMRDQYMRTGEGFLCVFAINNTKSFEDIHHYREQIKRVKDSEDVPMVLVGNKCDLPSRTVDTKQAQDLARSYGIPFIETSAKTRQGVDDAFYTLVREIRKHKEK
Chain of K-Ras G12C (P62937 whole entry): as the sequence (P62937 whole entry) above
Chain of KRAS G13D (P01116-2 other isoform, or with tags, fused parts or gaps G13D): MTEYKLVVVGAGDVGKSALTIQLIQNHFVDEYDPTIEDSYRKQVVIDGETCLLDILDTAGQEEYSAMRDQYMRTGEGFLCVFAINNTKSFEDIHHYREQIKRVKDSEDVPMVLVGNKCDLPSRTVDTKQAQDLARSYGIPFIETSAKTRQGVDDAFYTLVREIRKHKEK
Chain of KRAS G13D (P62937 whole entry): as the sequence (P62937 whole entry) above
Chain of K-Ras G13C (P01116-2 other isoform, or with tags, fused parts or gaps G13C): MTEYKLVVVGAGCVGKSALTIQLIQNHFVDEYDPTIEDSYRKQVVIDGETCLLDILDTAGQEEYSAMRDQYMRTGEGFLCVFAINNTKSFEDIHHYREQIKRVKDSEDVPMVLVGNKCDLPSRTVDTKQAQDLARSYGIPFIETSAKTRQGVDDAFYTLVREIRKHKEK
Chain of K-Ras G13C (P62937 whole entry): as the sequence (P62937 whole entry) above

Row | SMILES | pEC50 [1] | pIC50 (KRAS G12D) | pIC50 (K-Ras G13C) | pIC50 (K-Ras G12C) | pIC50 (KRAS G12V) | pIC50 (KRAS WT) | pIC50 (KRAS G13D) | pIC50 (NRAS G12C) | pIC50 (NCI-H358 (K-Ras G12C)) | pIC50 (KRAS G12S) | IC50 (NCI-H358 (K-Ras G12C); read-out: Additional H358 Cell Viability assay data (K-Ras G12C, IC50, uM), NCI-H358, 5-day treatment) [µM]
1 | CCn1c(-c2cccnc2[C@H](C)OC)c2c3cc(ccc31)-c1csc(n1)C[C@H](NC(=O)[C@H](C(C)C)N(C)C(=O)[C@H]1CCC(C(=O)/C=C/CN(C)C)C1)C(=O)N1CCC[C@H](N1)C(=O)OCC(C)(C)C2 (stereo partly shown) [Example A282] | > 5.30 | 5.00 to 6.00 | 5.00 to 6.00 | 6.00 to 7.00 | 5.00 to 6.00 | 5.00 to 6.00 | 5.00 to 6.00 | 6.00 to 7.00 | 7.00 to 8.00 | 5.00 to 6.00 | 
2 | C=CC(=O)N1CCC2(CCN([C@H](C(=O)N[C@H]3Cc4cc(O)cc(c4)-c4ccc5c(c4)c(c(-c4cccnc4[C@H](C)OC)n5CC)CC(C)(C)COC(=O)[C@@H]4CCCN(N4)C3=O)C(C)C)C2=O)C1 (stereo partly shown) [Example A295] | > 5.30 | 6.00 to 7.00 | 7.00 to 8.00 | 7.00 to 8.00 | 7.00 to 8.00 | 7.00 to 8.00 | 6.00 to 7.00 | 7.00 to 8.00 | > 8.00 | 7.00 to 8.00 | 
3 | C=CS(=O)(=O)N1CCC2(CCN([C@H](C(=O)N[C@H]3Cc4cc(O)cc(c4)-c4ccc5c(c4)c(c(-c4cccnc4[C@H](C)OC)n5CC)CC(C)(C)COC(=O)[C@@H]4CCCN(N4)C3=O)C(C)C)C2=O)C1 (stereo partly shown) [Example A298] | > 5.30 | 6.00 to 7.00 | > 8.00 | > 8.00 | 7.00 to 8.00 | 7.00 to 8.00 | 7.00 to 8.00 | > 8.00 | > 8.00 | 7.00 to 8.00 | 
4 | CCn1c(-c2cccnc2[C@H](C)OC)c2c3cc(ccc31)-c1cccc(c1)C[C@H](NC(=O)[C@H](C(C)C)N(C)C(=O)[C@H]1CCN(C(=O)C#C[C@]3(C)CCCN3C)C1)C(=O)N1CCC[C@H](N1)C(=O)OCC(C)(C)C2 [Example A317] | > 5.30 | < 5.00 | 5.00 to 6.00 | > 8.00 | 5.00 to 6.00 | 5.00 to 6.00 | < 5.00 | 7.00 to 8.00 | > 8.00 | 5.00 to 6.00 | 
5 | C=CC(=O)N1C2CC1CN(C(=O)N(C)[C@H](C(=O)N[C@H]1Cc3nc(cs3)-c3ccc4c(c3)c(c(-c3cccnc3[C@H](C)OC)n4CC)CC(C)(C)COC(=O)[C@@H]3CCCN(N3)C1=O)C(C)C)C2 [Example A408] | > 5.30 | 5.00 to 6.00 | 6.00 to 7.00 | 6.00 to 7.00 | 6.00 to 7.00 | 6.00 to 7.00 | 5.00 to 6.00 | 6.00 to 7.00 |  | 6.00 to 7.00 | 0.01 to 0.1
6 | C=CC(=O)N1CC[C@H](C(=O)N(C)[C@H](C(=O)N[C@H]2Cc3csc(n3)-c3ccc4c(c3)c(c(-c3cc(N5CCN(C)CC5)cnc3[C@H](C)OC)n4CC(F)(F)F)CC(C)(C)COC(=O)[C@@H]3CCCN(N3)C2=O)C(C)C)C1 [Example A410] | > 5.30 | 5.00 to 6.00 | 6.00 to 7.00 | 7.00 to 8.00 | 6.00 to 7.00 | 6.00 to 7.00 | 6.00 to 7.00 | 7.00 to 8.00 | > 8.00 | 6.00 to 7.00 | 
7 | C=CC(=O)N1CC2CCC1CN2C(=O)N(C)[C@H](C(=O)N[C@H]1Cc2nc(cs2)-c2ccc3c(c2)c(c(-c2cccnc2[C@H](C)OC)n3CC)CC(C)(C)COC(=O)[C@@H]2CCCN(N2)C1=O)C(C)C [Example A420] | > 5.30 | 5.00 to 6.00 | 6.00 to 7.00 | 6.00 to 7.00 | 6.00 to 7.00 | 6.00 to 7.00 | 5.00 to 6.00 | 6.00 to 7.00 | 7.00 to 8.00 | 6.00 to 7.00 | 
8 | CCn1c(-c2cccnc2[C@H](C)OC)c2c3cc(ccc31)-c1cccc(c1)C[C@H](NC(=O)[C@H](C(C)C)N(C)C(=O)[C@H]1CCN(C(=O)/C=C/CF)C1)C(=O)N1CCC[C@H](N1)C(=O)OCC(C)(C)C2 [Example A449] | > 5.30 | < 5.00 | 6.00 to 7.00 | 6.00 to 7.00 | 5.00 to 6.00 | 5.00 to 6.00 | 5.00 to 6.00 | 6.00 to 7.00 | 7.00 to 8.00 | 5.00 to 6.00 | 
9 | C=CC(=O)N1CCC2(C1)OCN([C@H](C(=O)N[C@H]1Cc3cccc(c3)-c3ccc4c(c3)c(c(-c3cccnc3[C@H](C)OC)n4CC)CC(C)(C)COC(=O)[C@@H]3CCCN(N3)C1=O)C(C)C)C2=O (stereo partly shown) [Example A459] | > 5.30 | 5.00 to 6.00 | 6.00 to 7.00 | 7.00 to 8.00 | 5.00 to 6.00 | 5.00 to 6.00 | 5.00 to 6.00 | 7.00 to 8.00 | 7.00 to 8.00 | 5.00 to 6.00 | 
10 | CCn1c(-c2cccnc2[C@H](C)OC)c2c3cc(ccc31)-c1cccc(c1)C[C@H](NC(=O)[C@H](C(C)C)N(C)C(=O)[C@@H]1CCN(C(=O)C#CC(C)(C)N3CCC3)C1)C(=O)N1CCC[C@H](N1)C(=O)OCC(C)(C)C2 [Example A476] | > 5.30 | 5.00 to 6.00 | 6.00 to 7.00 | 7.00 to 8.00 | 5.00 to 6.00 | 5.00 to 6.00 | 5.00 to 6.00 | 7.00 to 8.00 | > 8.00 | 5.00 to 6.00 | 
11 | C=CC(=O)N1CC(OCC(C(=O)N[C@H]2Cc3cccc(c3)-c3ccc4c(c3)c(c(-c3cccnc3[C@H](C)OC)n4CC)CC(C)(C)COC(=O)[C@@H]3CCCN(N3)C2=O)C(C)C)C1 (stereo partly shown) [Example A483] | > 5.30 | < 5.00 | 5.00 to 6.00 | 6.00 to 7.00 | 5.00 to 6.00 | 5.00 to 6.00 | < 5.00 | 6.00 to 7.00 | > 8.00 | < 5.00 | 
12 | C=CC(=O)N1CC[C@H](C(=O)N(C)[C@H](C(=O)N[C@H]2Cc3cccc(c3)-c3ccc4c(c3)c(c(-c3cccnc3[C@H](C)OC)n4CC#N)CC(C)(C)COC(=O)[C@@H]3CCCN(N3)C2=O)C(C)C)C1 [Example A510] | > 5.30 | 5.00 to 6.00 | 6.00 to 7.00 | 7.00 to 8.00 | 5.00 to 6.00 | 5.00 to 6.00 | 5.00 to 6.00 | 7.00 to 8.00 | 7.00 to 8.00 | 5.00 to 6.00 | 
13 | CCn1c(-c2cccnc2[C@H](C)OC)c2c3cc(ccc31)-c1cccc(c1)C[C@H](NC(=O)[C@H](C(C)C)N(C)C(=O)C1CCN(C(=O)C#C[C@@H]3CC(F)(F)CN3C)C1)C(=O)N1CCC[C@H](N1)C(=O)OCC(C)(C)C2 (stereo partly shown) [Example A526] | > 5.30 | < 5.00 | 5.00 to 6.00 | 7.00 to 8.00 | 5.00 to 6.00 | 5.00 to 6.00 | < 5.00 | 7.00 to 8.00 | > 8.00 | 5.00 to 6.00 | 

— patent publication US11566007B2, “Ras inhibitors” (Revolution Medicines, Inc., priority 2019, dated 2023)
